From the NIST ThermoML archive (doi:10.1021/je0201119)

Test: xn = mol fraction of the nth substance listed
Details: 92 kPa, Liquid; for mass density: Vibrating tube method

CC(C)(N)CO [2-amino-2-methylpropan-1-ol] + O
Details | mass density [kg/m3] | viscosity [mPa·s]
298.15 K, x1 = 0.0503 | 996.94 | 2.32
298.15 K, x1 = 0.0704 | 997.22 | 3.23
298.15 K, x1 = 0.1005 | 997.05 | 5.01
298.15 K, x1 = 0.2006 | 989.06 | 14.82
298.15 K, x1 = 0.2939 | 978.77 | 22.7
298.15 K, x1 = 0.4075 | 967.43 | 51.5
298.15 K, x1 = 0.4982 | 959.61 | 76.8
298.15 K, x1 = 0.5996 | 952.01 | 102.5
298.15 K, x1 = 0.7028 | 945.34 | 124.3
298.15 K, x1 = 0.8016 | 939.53 | 140.7
298.15 K, x1 = 0.9001 | 934.8 | 149.1
303.15 K, x1 = 0.0503 | 994.7 | 1.98
303.15 K, x1 = 0.0704 | 994.6 | 2.67
303.15 K, x1 = 0.1005 | 993.88 | 4.05
303.15 K, x1 = 0.2006 | 985.15 | 11.32
303.15 K, x1 = 0.2939 | 974.76 | 16.96
303.15 K, x1 = 0.4075 | 963.43 | 36.9
303.15 K, x1 = 0.4982 | 955.61 | 54.3
303.15 K, x1 = 0.5996 | 948 | 70.3
303.15 K, x1 = 0.7028 | 941.38 | 84
303.15 K, x1 = 0.8016 | 935.53 | 94
303.15 K, x1 = 0.9001 | 930.7 | 98.9
313.15 K, x1 = 0.0503 | 989.66 | 1.608
313.15 K, x1 = 0.0704 | 988.95 | 1.931
313.15 K, x1 = 0.1005 | 987.5 | 2.79
313.15 K, x1 = 0.2006 | 977.24 | 7
313.15 K, x1 = 0.2939 | 966.67 | 12.51
313.15 K, x1 = 0.4075 | 955.29 | 20.37
313.15 K, x1 = 0.4982 | 947.43 | 28.7
313.15 K, x1 = 0.5996 | 939.82 | 36.1
313.15 K, x1 = 0.7028 | 933.1 | 42.5
313.15 K, x1 = 0.8016 | 927.27 | 46.2
313.15 K, x1 = 0.9001 | 923.35 | 47.9
313.15 K, x1 = 1 | 919.65 | 47.8
323.15 K, x1 = 0.0503 | 984.18 | 1.244
323.15 K, x1 = 0.0704 | 982.83 | 1.466
323.15 K, x1 = 0.1005 | 980.6 | 2.03
323.15 K, x1 = 0.2006 | 969.17 | 4.66
323.15 K, x1 = 0.2939 | 958.38 | 7.85
323.15 K, x1 = 0.4075 | 946.98 | 12.17
323.15 K, x1 = 0.4982 | 939.08 | 16.26
323.15 K, x1 = 0.5996 | 931.58 | 20
323.15 K, x1 = 0.7028 | 924.7 | 22.7
323.15 K, x1 = 0.8016 | 918.85 | 24.6
323.15 K, x1 = 0.9001 | 914.78 | 25.3
323.15 K, x1 = 1 | 911.24 | 25.1
333.15 K, x1 = 0.0503 | 978.15 | 0.931
333.15 K, x1 = 0.0704 | 976.26 | 1.154
333.15 K, x1 = 0.1005 | 973.43 | 1.55
333.15 K, x1 = 0.2006 | 960.92 | 3.27
333.15 K, x1 = 0.2939 | 949.92 | 5.23
333.15 K, x1 = 0.4075 | 938.48 | 7.63
333.15 K, x1 = 0.4982 | 930.56 | 10
333.15 K, x1 = 0.5996 | 923.08 | 11.97
333.15 K, x1 = 0.7028 | 915.97 | 13.33
333.15 K, x1 = 0.8016 | 910.36 | 14.22
333.15 K, x1 = 0.9001 | 906.31 | 14.53
333.15 K, x1 = 1 | 902.87 | 14.4
343.15 K, x1 = 0.0503 | 971.66 | 0.826
343.15 K, x1 = 0.0704 | 969.29 | 0.933
343.15 K, x1 = 0.1005 | 965.83 | 1.21
343.15 K, x1 = 0.2006 | 952.44 | 2.4
343.15 K, x1 = 0.2939 | 941.28 | 3.67
343.15 K, x1 = 0.4075 | 930 | 4.94
343.15 K, x1 = 0.4982 | 921.85 | 6.43
343.15 K, x1 = 0.5996 | 914.39 | 7.5
343.15 K, x1 = 0.7028 | 907 | 8.23
343.15 K, x1 = 0.8016 | 901.65 | 8.88
343.15 K, x1 = 0.9001 | 897.77 | 8.98
343.15 K, x1 = 1 | 894.28 | 8.91
